Structures can show the parent of a compound that is named as a salt.
Columns and labels:
[1] = High temperature stress stability at 100° C., HPLC assay; format: physicochemical; settings: in the light
Experimental: The two samples, lercanidipine hydrochloride hemihydrate, and anhydrous lercanidipine hydrochloride were heated, in the light, at 100° C. for 48 hours. The samples were tested at the following times; 0 hours, 24 hours, and 48 hours. The purity of the lercanidipine was checked by HPLC analysis under the following conditions:
Column: m-Bondapak C-18 (Waters), particle size […], 300×3.9 mm i.d.

[2] = Water content at 75% relative humidity (Karl-Fisher); format: physicochemical
Experimental: Samples of anhydrous lercanidipine hydrochloride and lercanidipine hydrochloride hemihydrate were placed in open polyethylene bags in flasks and heated, in the dark, at 60° C. and 75% relative humidity. The samples were checked for hygroscopicity by determination of the water content using the Karl-Fisher method. The samples were tested at 8 and 15 days.
Two additional samples of the anhydrous lercanidipine hydrochloride and lercanidipine hydrochloride hemihydrate were placed in open polyethylene bags in flasks and heated, in the dark, at 40° C. and 75% relative humidity. The samples were tested as described above at 8 and 15 days.

[3] = test system: mouse peritoneal macrophages; experiment: Cholesteryl ester hydrolysis in macrophages; format: cell-based; settings: AcLDL 50 μg/ml + S-58035 1 μg/ml
Experimental: These experiments were performed by incubating cells preloaded with [^3 H]cholesterol in the presence of the specific ACAT inhibitor S-58035. The blockage of intracellular reesterification of cholesterol allowed the assessment of the ability of cells to hydrolyze the accumulated cholesterol esters.
For studies involving the quantitation of the hydrolysis of cholesteryl esters in cytoplasmic lipid droplets, cells, prepared according to the procedure in Example 6A, are loaded with cholesteryl esters by exposure for 24 hours to the medium containing 50 μg/ml acetyl LDL. [1,2-^3 H]Cholesterol is included in all loading media at a concentration of 0.5 μCi/ml. After 24 hours loading period, during which time the radiolabeled cholesterol is incorporated and esterified, the cell monolayers are washed and incubated an additional 24 hours in medium containing 0.1% bovine serum albumin to allow the intracellular pools of labelled cholesterol to equilibrate to the same specific activity. To quantitate cholesteryl ester hydrolysis, the loaded cells are incubated for up to 24 hours in Dulbecco's minimum essential medium containing, 0.1% bovine serum albumin, lercanidipines, and the compound S-58035, an inhibitor of acyl-coenzyme A-cholesterol acyltransferase. The inhibition of acyl-coenzyme A-cholesterol acyltransferase prevents the reesterification of any free cholesterol generated by cholesteryl ester hydrolysis and thus allows assessment of the activity of the hydrolase. The hydrolysis of the cholesteryl esters is quantified by determining the decrease of radiolabeled cholesteryl esters (E. H. Harrison et al., J. Lipid. Res. 31: […] with phosphate buffered saline and extracted with hexane:isopropanol (3:2 v/v). The media were extracted with chloroform:methanol (2:1 v/v). After solvent removal, free and esterified cholesterol were separated by TLC (isooctane:diethyl ether:acetic acid, 75:25:2 by volume). Cholesterol mass or radioactivity of the spots were determined by an enzymatic method (Boehringer Mannheim, Germany) (F. Bernini et al., Atherosclerosis 104: 19 (1993)) or by liquid scintillation counting (Lipoluma Lumac, Landgraf, The Netherlands) respectively.

COC(=O)C1=C(C)NC(C)=C(C(=O)OC(C)(C)CN(C)CCC(c2ccccc2)c2ccccc2)C1c1cccc([N+](=O)[O-])c1 (stereo not shown) [Anhydrous, METHYL 1,1-N-TRIMETHYL-N-(3,3-DIPHENYLPROPYL)-2-AMINOETHYL 1,4-DIHYDRO-2,6-DIMETHYL-4-(3-NITROPHENYL) PYRIDINE-3,5-DICARBOXYLATE (LERCANIDIPINE) HYDROCHLORIDE]
Assay % by HPLC ([1]; 0 hr, HYDROCHLORIDE): 99.74% | remaining at 24 h ([1]; solid, 24 hrs): 99.4% | remaining at 48 h ([1]; solid, 48 hrs): 99% | Water Content ([2]; 40° C., 0 days, HYDROCHLORIDE): 0.28% | Water Content ([2]; 40° C., 8 days, HYDROCHLORIDE): 0.3% | Water Content ([2]; 40° C., 15 days, HYDROCHLORIDE): 0.32% | Water Content ([2]; 60° C., 0 days, HYDROCHLORIDE): 0.28% | Water Content ([2]; 60° C., 8 days, HYDROCHLORIDE): 0.85% | Water Content ([2]; 60° C., 15 days, HYDROCHLORIDE): 0.77%

CCCCCCCCCC[Si](C)(C)CCC(=O)NC(Cc1ccc(C)cc1)c1ccccc1 (stereo not shown) [Example S-58035, reference compound]
% of cholesteryl ester [3]: 15 ± 0.5%

COC(=O)C1=C(C)NC(C)=C(C(=O)OC(C)(C)CN(C)CCC(c2ccccc2)c2ccccc2)C1c1cccc([N+](=O)[O-])c1 (stereo not shown) [Hemihydrate, Lercanidipine hydrochloride hemihydrate, reference compound]
Assay % by HPLC ([1]; 0 hr): 99.85% | Assay % by HPLC ([1]; 24 hrs, hydrochloride hemihydrate, 1440 min): 92.35% | Assay % by HPLC ([1]; 48 hrs, hydrochloride hemihydrate, 2880 min): 90.96% | Water Content ([2]; 40° C., 0 days): 1.42% | Water Content ([2]; 40° C., 8 days): 3.14% | Water Content ([2]; 40° C., 15 days): 3.05% | Water Content ([2]; 60° C., 0 days): 1.42% | Water Content ([2]; 60° C., 8 days): 4% | Water Content ([2]; 60° C., 15 days): 4.04%
